Consider 22 compounds from patent publication US8349883B2, “Hydroxamate-based inhibitors of deacetylases B” (Novartis AG, priority 2008, dated 2013).

One experiment addresses T1, HDAC-1 (Homo sapiens, UniProt Q13547).
T1 construct: made in house; host or cells: Sf9 or Sf21 insect cells (baculovirus, donor vector pFB-GSTX3)
Briefly: HDAC inhibition assay (purified GST-HDAC protein). Type of experiment: biochemical. The text has this:
The baculovirus donor vector pFB-GSTX3 was used to generate a recombinant baculovirus that can express the HDAC polypeptide. Transfer vectors containing the HDAC coding region were transfected into the DH10Bac cell line (GIBCO) and plated on selective agar plates. Colonies without insertion of the fusion sequence into the viral genome (carried by the bacteria) were blue. Single, white colonies were picked and viral DNAs (bacmid) were isolated from the bacteria by standard plasmid purification procedures. Sf9 cells or Sf21 (American Type Culture Collection) cells were then transfected in […] flasks with the viral DNA using Cellfectin reagent.
Virus-containing media was collected from the transfected cell culture and used for infection to increase its titer. Virus-containing media obtained after two rounds of infection was used for large-scale protein expression. For large-scale protein expression 100 cm^2 round tissue culture plates were seeded with 5×10^7 cells/plate and infected with 1 mL of virus-containing media (at an approximately MOI of 5). After 3 days, the cells were scraped off the plate and centrifuged at 500 rpm for 5 minutes. Cell pellets from 10-20, 100 cm^2 plates, were re-suspended in 50 mL of ice-cold lysis buffer (25 mM tris-HCl, pH 7.5, 2 mM EDTA, 1% NP-40, 1 mM DTT, 1 mM P MSF). The cells were stirred on ice for 15 minutes and then centrifuged at 5,000 rpms for 20 minutes.
The centrifuged cell lysate was loaded onto a 2 mL glutathione-sepharose column (Pharmacia) and was washed thrice with 10 mL of 25 mM tris-HCl, pH 7.5, 2 mM EDTA, 1 mM DTT, 200 mM NaCl. The GST-tagged proteins were then eluted by 10 applications (1 mL each) of 25 mM tris-HCl, pH 7.5, 10 mM reduced-glutathione, 100 mM NaCl, 1 mM DTT, 10% glycerol and stored at −70° C.
HDAC assays with purified GST-HDAC protein were carried out in a final volume of 30 μL containing 15 ng of GST-HDAC protein, 20 mM tris-HCl, pH 7.5, 1 mM MnCl2, 10 mM MgCl2, 1 mM DTT, 3 μg/mL poly(Glu,Tyr) 4:1, 1% DMSO, 2.0 μM ATP (γ-[^33P]-ATP 0.1 μCi). The activity was assayed in the presence or absence of inhibitors. The assay was carried out in 96-well plates at ambient temperature for 15 minutes under conditions described below and terminated by the addition of 20 μL of 125 mM EDTA. Subsequently, 40 μL of the reaction mixture were transferred onto EMMOBILON-PVDF membrane (Millipore) previously soaked for 5 minutes with methanol, rinsed with water, then soaked for 5 minutes with 0.5% H3PO4 and mounted on vacuum manifold with disconnected vacuum source. After spotting all samples, a vacuum was connected and each well rinsed with 200 μL 0.5% H3PO4. Membranes were removed and washed four times on a shaker with 1.0% H3PO4, once with ethanol. Membranes were counted after drying at ambient temperature, mounting in Packard TopCount 96-well frame, and addition of 10 μL/well of MICROSCINT™ (Packard). IC50 values were calculated by linear regression analysis of the percentage inhibition of each compound in duplicate, at 4 concentrations (usually 0.01, 0.1, 1 and 10 μM).
• Input: 3×4 μL stopped assay on IMMOBILON membrane, not washed • Background (3 wells): assay with H2O instead of enzyme • Positive control (4 wells): 3% DMSO instead of compound • Bath control (1 well): no reaction mix
IC50 values were calculated by logarithmic regression analysis of the percentage inhibition of each compound at 4 concentrations (usually 3- or 10-fold dilution series starting at 10 μM). In each experiment, the actual inhibition by reference compound was used for normalization of IC50 values to the basis of an average value of the reference inhibitor: Normalized IC50=measured IC50 average ref IC50/measured ref IC50
Example: Reference inhibitor in experiment 0.4 μM, average 0.3 μM, Test compound in experiment 1.0 μM, normalization: 0.3/0.4=0.75 μM
For example, known HDAC inhibitors or a synthetic derivative thereof may be used as reference compounds.

The subject of the next experiment is HCT116. The experiment can be described thus: HCT116 IC50. Type of experiment: cell-based. Particulars: Homo sapiens, HCT-116.

T1 sequence (Q13547 whole entry, species assumed): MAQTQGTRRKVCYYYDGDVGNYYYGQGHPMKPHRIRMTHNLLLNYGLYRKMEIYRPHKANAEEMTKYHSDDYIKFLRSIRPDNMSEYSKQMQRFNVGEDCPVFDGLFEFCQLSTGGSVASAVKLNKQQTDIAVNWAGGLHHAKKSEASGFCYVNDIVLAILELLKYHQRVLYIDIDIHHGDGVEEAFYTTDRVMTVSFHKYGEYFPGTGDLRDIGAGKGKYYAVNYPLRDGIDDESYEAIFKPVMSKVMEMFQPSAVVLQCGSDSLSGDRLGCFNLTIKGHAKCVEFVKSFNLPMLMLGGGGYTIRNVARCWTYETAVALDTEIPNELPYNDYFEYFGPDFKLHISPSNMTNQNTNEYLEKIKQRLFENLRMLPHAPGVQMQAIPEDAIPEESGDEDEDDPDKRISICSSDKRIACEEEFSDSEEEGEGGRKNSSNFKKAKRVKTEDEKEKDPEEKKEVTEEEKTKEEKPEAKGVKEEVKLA

Broadly, the IC50 is the concentration that gives 50% inhibition. A high value points to lower potency. For `Cc1nc2ccccn2c1CCN1CCC[C@H]1c1ccc(/C=C/C(=O)NO)cc1` [Compound 54, (E)-N-Hydroxy-3-(4-{(S)-1-[2-(2-methyl-imidazo[1,2-a]pyridin-3-yl)-ethyl]-pyrrolidin-2-yl}-phenyl)-acrylamide], the results for the half-inhibitory concentration (IC50) at HDAC-1 and in the experiment with HCT116 were 3 nM and 4 nM, respectively.

Regarding `CC(C)(C)n1nnc(CCN2CCC[C@H]2c2ccc(/C=C/C(=O)NO)cc2)n1` [Compound 104, (E)-3-(4-{(S)-1-[2-(2-tert-Butyl-2H-tetrazol-5-yl)-ethyl]-pyrrolidin-2-yl}-phenyl)-N-hydroxy-acrylamide], the IC50 against HDAC-1 is 42 nM; in the experiment with HCT116 it was 360 nM.

With `CC(C)n1nnnc1CCN1CCC[C@H]1c1ccc(CCC(=O)NO)cc1` [Compound 115, N-Hydroxy-3-(4-{(S)-1-[2-(1-isopropyl-1H-tetrazol-5-yl)-ethyl]-pyrrolidin-2-yl}-phenyl)-propionamide], the IC50 at HDAC-1 is 25 nM; with HCT116, 32 nM.

Turning to `CC(C)(O)c1nn2ccccc2c1CCN1CCC[C@@H]1c1ccc(CCC(=O)NO)cc1` [Compound 120, N-Hydroxy-3-[4-((R)-1-{2-[2-(1-hydroxy-1-methyl-ethyl)-pyrazolo[1,5-a]pyridin-3-yl]-ethyl}-pyrrolidin-2-yl)-phenyl]-propionamide], the IC50 amounted to 75 nM against HDAC-1 and 510 nM with HCT116.

Take `Cc1nn(CC2CC2)c(C)c1CCN1CCC[C@H]1c1ccc(/C=C/C(=O)NO)cc1` [Compound 62, (E)-3-(4-{(S)-1-[2-(1-Cyclopropylmethyl-3,5-dimethyl-1H-pyrazol-4-yl)-ethyl]-pyrrolidin-2-yl}-phenyl)-N-hydroxy-acrylamide]: the IC50 on HDAC-1 and with HCT116 was 2 nM in each case.

With `O=C(/C=C/c1ccc([C@@H]2CCCN2CCn2cc(Br)cn2)cc1)NO` [Compound 65, (E)-3-(4-{(S)-1-[2-(4-Bromo-pyrazol-1-yl)-ethyl]-pyrrolidin-2-yl}-phenyl)-N-hydroxy-acrylamide], the results for the IC50 against HDAC-1 and with HCT116 were 35 nM and 180 nM, respectively.

Take `Cc1c(CCN2CCC[C@H]2c2ccc(/C=C/C(=O)NO)cc2)c(=O)n(-c2ccccc2)n1C` [Compound 116, (E)-3-(4-{(S)-1-[2-(1,5-Dimethyl-3-oxo-2-phenyl-2,3-dihydro-1H-pyrazol-4-yl)-ethyl]-pyrrolidin-2-yl}-phenyl)-N-hydroxy-acrylamide]: the values for the IC50 on HDAC-1 and in the experiment on HCT116 were 20 nM and 49 nM, respectively.

For the compound `O=C(/C=C/c1ccc(C2CCCN2CCc2ccc(Cl)cc2Cl)cc1)NO` (centres unmarked) [Compound 26, (E)-3-(4-{1-[2-(2,4-Dichloro-phenyl)-ethyl]-pyrrolidin-2-yl}-phenyl)-N-hydroxy-acrylamide], the concentration for half-maximal inhibition (IC50) on HDAC-1 was 7 nM; with HCT116, 29 nM.

Turning to `CCn1nc(C)c(CCN2CCC[C@H]2c2ccc(/C=C/C(=O)NO)cc2)c1C` [Compound 96, (E)-3-(4-{(S)-1-[2-(1-Ethyl-3,5-dimethyl-1H-pyrazol-4-yl)-ethyl]-pyrrolidin-2-yl}-phenyl)-N-hydroxy-acrylamide], the IC50 against HDAC-1 is 1.7 nM; with HCT116 it was 2 nM.

Turning to `Cn1cc(CCN2CCC[C@H]2c2ccc(/C=C/C(=O)NO)cc2)cn1` [Compound 59, (E)-N-Hydroxy-3-(4-{(S)-1-[2-(1-methyl-1H-pyrazol-4-yl)-ethyl]-pyrrolidin-2-yl}-phenyl)-acrylamide], the values for the IC50 against HDAC-1 and in the experiment with HCT116 were 8 nM and 35 nM, respectively.

Regarding `CN1CCN(CCc2cnn3ccccc23)C(c2ccc(/C=C/C(=O)NO)cc2)C1` (centres unmarked) [Compound 90, (E)-N-Hydroxy-3-{4-[4-methyl-1-(2-pyrazolo[1,5-a]pyridin-3-yl-ethyl)-piperazin-2-yl]-phenyl}-acrylamide], the IC50 on HDAC-1 worked out at 8 nM; with HCT116, 34 nM.

On to `O=C(/C=C/c1cc(F)c([C@@H]2CCCN2CCc2cnn3ccccc23)c(F)c1)NO` [Compound 94, (E)-3-{3,5-Difluoro-4-[(S)-1-(2-pyrazolo[1,5-a]pyridin-3-yl-ethyl)-pyrrolidin-2-yl]-phenyl}-N-hydroxy-acrylamide], for which the IC50 at HDAC-1 amounted to 1.4 nM; in the experiment with HCT116, 5 nM.

In the case of `O=C(/C=C/c1ccc([C@@H]2CCCN2CCc2ccc(F)cc2)cc1)NO` [Compound 21, (E)-3-(4-{(S)-1-[2-(4-Fluoro-phenyl)-ethyl]-pyrrolidin-2-yl}-phenyl)-N-hydroxy-acrylamide], the IC50 is 8 nM on HDAC-1 and 21 nM in the experiment on HCT116.

Turning to `O=C(/C=C/c1ccc([C@@H]2CCCN2CCc2c(-c3cccnc3)nn3ccccc23)cc1)NO` [Compound 50, (E)-N-Hydroxy-3-(4-{(S)-1-[2-(2-pyridin-3-yl-pyrazolo[1,5-a]pyridin-3-yl)-ethyl]-pyrrolidin-2-yl}-phenyl)-acrylamide], the values for the IC50 against HDAC-1 and with HCT116 were 1 nM and 0.4 nM, respectively.

As for `O=C(/C=C/c1ccc([C@@H]2CCCN2CCc2cnn3ccccc23)cc1F)NO` [Compound 93, (E)-3-{2-Fluoro-4-[(S)-1-(2-pyrazolo[1,5-a]pyridin-3-yl-ethyl)-pyrrolidin-2-yl]-phenyl}-N-hydroxy-acrylamide], the figures for the IC50 on HDAC-1 and with HCT116 were 1.4 nM and 1.1 nM, respectively.

In the case of `O=C(/C=C/c1ccc(C2CCCN2CCn2ccc3ccccc32)cc1)NO` (centres unmarked) [Compound 5, (E)-N-Hydroxy-3-{4-[1-(2-indol-1-yl-ethyl)-pyrrolidin-2-yl]-phenyl}-acrylamide], the values for the IC50 against HDAC-1 and in the experiment with HCT116 were 6 nM and 10 nM, respectively.

Consider `Cc1[nH]c2ccccc2c1CC(=O)N1CCCC1c1ccc(/C=C/C(=O)NO)cc1` (centres unmarked) [Compound 12, (E)-N-Hydroxy-3-(4-{1-[2-(2-methyl-1H-indol-3-yl)-acetyl]-pyrrolidin-2-yl}-phenyl)-acrylamide], for which the IC50 is 4 nM against HDAC-1 and 96 nM with HCT116.

As to `O=C(/C=C/c1ccc(C2CCCN2CCc2ccc(Cl)c(Cl)c2)cc1)NO` (centres unmarked) [Compound 23, (E)-3-(4-{1-[2-(3,4-Dichloro-phenyl)-ethyl]-pyrrolidin-2-yl}-phenyl)-N-hydroxy-acrylamide], the IC50 came out at 19 nM against HDAC-1 and 97 nM with HCT116.

`O=C(/C=C/c1ccc(C2CCCN2CCc2cnc3ccccn23)cc1)NO` (centres unmarked) [Compound 53, (E)-N-Hydroxy-3-{4-[1-(2-imidazo[1,2-a]pyridin-3-yl-ethyl)-pyrrolidin-2-yl]-phenyl}-acrylamide]: the IC50 at HDAC-1 turned out to be 0.9 nM; in the experiment with HCT116, 1 nM.

As to `O=C(/C=C/c1ccc(C2CCCN2CCc2ccccc2Cl)cc1)NO` (centres unmarked) [Compound 25, (E)-3-(4-{1-[2-(2-Chloro-phenyl)-ethyl]-pyrrolidin-2-yl}-phenyl)-N-hydroxy-acrylamide], the IC50 turned out to be 5 nM against HDAC-1 and 7 nM in the experiment on HCT116.

As to `CC(C)(C)c1[nH]nnc1CCN1CCC[C@H]1c1ccc(/C=C/C(=O)NO)cc1` [Compound 108, (E)-3-(4-{(S)-1-[2-(5-tert-Butyl-1H-[1,2,3]triazol-4-yl)-ethyl]-pyrrolidin-2-yl}-phenyl)-N-hydroxy-acrylamide], the IC50 against HDAC-1 was found to be 7 nM; in the experiment with HCT116, 10 nM.

`O=C(/C=C/c1ccc([C@@H]2CCCN2CCc2c(C(F)(F)F)nn3ccccc23)cc1)NO` [Compound 46, (E)-N-Hydroxy-3-(4-{(S)-1-[2-(2-trifluoromethyl-pyrazolo[1,5-a]pyridin-3-yl)-ethyl]-pyrrolidin-2-yl}-phenyl)-acrylamide]: the IC50 against HDAC-1 worked out at 3 nM; in the experiment on HCT116, 0.6 nM.
